For one assay, the system named is iMCD. As to conditions: literature case reports; cited from earlier work.
Assay [1] has as its system iMCD patients. Kind of assay: Siltuximab phase II study (NCT01024036): durable symptomatic and tumor response criteria. The class given is in vivo, human.
Excerpt: Clinical and laboratory data were collected at the time of sample draw for iMCD patients. To assess disease activity, we adapted a previously published disease activity score using C-reactive protein, hemoglobin, and albumin.
Assay [2] concerns CXCL13. Kind of assay: Serum CXCL13 levels (absolute quantification, RBM) in validation cohort, siltuximab phase I study. The class given is in vivo, human. An excerpt: Samples collected in real-world practice were included to better represent the full spectrum of iMCD. We obtained samples from 60 patients with diseases that overlap in clinical and pathological presentation with iMCD, including HHV8-associated MCD (N=20), HL (N=20), and RA (N=20), which are caused by viral, neoplastic, and autoimmune mechanisms, respectively, and 44 healthy individuals. […] All serum samples from the phase I and the phase II studies were collected and processed following respective standardized protocols.
For the 23 samples in the validation cohort, Rules Based Medicine (RBM) DiscoveryMap v1.0 was used to measure 190 serum analytes by a microsphere-based, multiplexed immunoassay platform.^18 RBM values were converted to standardized units and log 2 transformed. Of 190 proteins measured by RBM, 154 can be mapped to targets in the Somalogic platform, and 140 remained for analysis after filtering out low-quality targets on both platforms.
A […] was generated to identify 17% as the optimal reduction in CXCL13 levels to maximize sensitivity and specificity of this indicator (FIGS. 7 & 14). Specifically, if a patient has a 17% or greater reduction in CXCL13 levels, then the patient is highly likely to respond (FIGS. 15-16, Table 4). The proteins from patients in the discovery cohort described supra were quantified using a relative quantification while the protein quantification in the validation described in Table 4 utilized absolute quantification.

Assay [3] has as its system CXCL13. Kind of assay: Serum proteomics (SomaLogic SOMAscan) during siltuximab therapy, phase II study. It counts as in vivo, human. The procedure: Methods. Clinical data and serum samples were collected as part of NCT01024036. We measured serum protein analytes in the 52 subjects who were treated with anti-IL6 therapy, as well as the 26 patients in the control arm, at day 1, day 8, and day 64 of therapy (infusions administered every 21 days). Serum samples from 44 healthy donors were also analyzed. Of the 1,305 analytes measured using SomaLogic SOMAscan, 1,178 passed QC and were included in analyses. Each analyte was log 2 transformed and capped at the 2.5th and 97.5th percentiles. Response to anti-IL6 therapy was determined by independent review in NCT01024036. Data processing was performed using the Medidata Rave Omics machine learning platform and R v3.4.4.
Linear mixed effects models were used to detect whether kinetic changes in protein expression were associated with anti-IL6 response. Upon running the full model with the selected covariates, the p-values of the interaction between time point and response were used to test for differences between responders and nonresponders.
A separate model was fitted using each protein, and False Discovery Rates (FDR) were estimated by the Benjamini-Hochberg method with alpha <0.05.

The subject of assay [4] is iMCD patients. As to conditions: cited from earlier work.
The next assay concerns CD19+CD27-IgD+B cells. Kind of assay: In vitro treatment of flow-sorted iMCD patient B cells, RNA sequencing and geneset enrichment analysis of Hallmark pathways. It counts as cell-based, human. As to conditions: serum plus rhCXCL13 compared to serum only. As for the experimental part: An in vitro experiment was performed that included flow sorting CD19+CD27-IgD+B cells from peripheral blood mononuclear cells (PBMCs) derived from an iMCD patient and treating the CD19+CD27-IgD+B cells with either (A) serum only, (B) serum plus recombinant human CXCL13 (rhCXCL13) to assess the effects of CXCL13 on iMCD patient B cells, or (C) serum, rhCXCL13, and anti-CXCL13 (anti-CXCL13) antibody to assess the effects of this blocking antibody. Each of these samples had geneset enrichment analysis performed of the Hallmark pathways on RNA sequencing data.

The mark [5] stands for this setting: Non-Responders (N = 13), Day 43.

Turning to `C=CC[C@@H]1/C=C(\C)C[C@H](C)C[C@H](OC)[C@H]2O[C@@](O)(C(=O)C(=O)N3CCCC[C@H]3C(=O)O[C@H](/C(C)=C/[C@@H]3CC[C@@H](O)[C@H](OC)C3)[C@H](C)[C@@H](O)CC1=O)[C@H](C)C[C@@H]2OC` [tacrolimus], the “reported activity in iMCD” value in the assay with iMCD was “potential activity”.
Take siltuximab: the “patients with lymph node response by Cheson criteria who also achieved durable symptomatic response” value in the assay with iMCD patients [1] is reported as 18 of 20. Besides, the “CXCL13, Median (IQR)” value with CXCL13 [2] (Non-Responders (N = 13), Day 22/29, baseline 155 (79, 293)) is given as 249 (73.1, 466) pg/ml; in the assay with CXCL13 [2] (setting [5]), 218 (62, 371) pg/ml; in the assay on CXCL13 [2] (Responders (N = 10), Day 22/29, baseline 116 (57, 258)), 41.1 (23.5, 62) pg/ml; with CXCL13 [2] (Responders (N = 10), Day 43), 94.4 (29.6, 147) pg/ml. The “CXCL13, Mean (SD)” value in the assay on CXCL13 [2] (Non-Responders (N = 13), Day 22/29, baseline 234 (240)) is listed as 337 (381) pg/ml; in the assay on CXCL13 [2] (setting [5]), 229.1 (190.3) pg/ml; in the assay on CXCL13 [2] (Responders (N = 10), Day 22/29, baseline 241 (361)) it was 71.5 (94.5) pg/ml; with CXCL13 [2] (Responders (N = 10), Day 43), 94.8 (70.6) pg/ml. Further, in the assay on CXCL13 [3] (by day 64), the “CXCL13 levels in non-responders” value is “remained elevated”. In addition, in the assay with CXCL13 [3] (by day 64), the “CXCL13 levels in siltuximab responders” value is listed as “decreased to levels approaching the healthy donor range”. Also, the “9 serum proteins (IgA, BCMA, NPS-PLA2, ART, IL-18 BPa, CD5L, b2-Microglobulin, CXCL13, NRP1) in responders compared to non-responders” value with CXCL13 [3] (day 8, seven days after first siltuximab administration) is given as “significantly decreased”. Moreover, the “patients who met response criteria” value with iMCD patients [4] (Phase II study NCT01024036, assessed after a minimum of 48 weeks) is reported as “one-third”. The “iMCD patients who did not meet primary response criteria” value with iMCD patients [4] (siltuximab phase II registrational study) is recorded as 66%.

B1: rhCXCL13: recombinant human CXCL13 (protein, UniProt O43927 23-109, looked up)
C-X-C motif chemokine 13: VLEVYYTSLRCRCVQESSVFIPRRFIDRIQILPRGNGCPRKEIIVWKKNKSIVCVDPQAEWIQRMMEVLRKRSSSTLPVPVFKRKIP
Regarding B1, in the assay with CD19+CD27-IgD+B cells, the “pathways previously found up-regulated in iMCD (IL6-JAK-STAT3, mTORC1, Interferon alpha response, interferon gamma response, complement, TNFα signaling via NFKb)” value is “up-regulated”.

The record behind these values is patent US20240002520A1, “TREATMENT OF CASTLEMAN DISEASE” (THE TRUSTEES OF THE UNIVERSITY OF PENNSYLVANIA, priority 2020, published 2024).
